# Measurements: patent US10010541B2, “Modulation of tissue transglutaminase activation in disease” (The Board of Trustees of the Leland Stanford Junior …, priority 2014, dated 2018)
# How the values were obtained:
# TG2 = target: T1, TG2 (Homo sapiens, UniProt P21980); assay: glutamate dehydrogenase-coupled deamidation assay, substrate Cbz-Gln-Gly; format: biochemical; settings: irreversible inhibition model, full progress curves
# T1 sequence (P21980 1-687): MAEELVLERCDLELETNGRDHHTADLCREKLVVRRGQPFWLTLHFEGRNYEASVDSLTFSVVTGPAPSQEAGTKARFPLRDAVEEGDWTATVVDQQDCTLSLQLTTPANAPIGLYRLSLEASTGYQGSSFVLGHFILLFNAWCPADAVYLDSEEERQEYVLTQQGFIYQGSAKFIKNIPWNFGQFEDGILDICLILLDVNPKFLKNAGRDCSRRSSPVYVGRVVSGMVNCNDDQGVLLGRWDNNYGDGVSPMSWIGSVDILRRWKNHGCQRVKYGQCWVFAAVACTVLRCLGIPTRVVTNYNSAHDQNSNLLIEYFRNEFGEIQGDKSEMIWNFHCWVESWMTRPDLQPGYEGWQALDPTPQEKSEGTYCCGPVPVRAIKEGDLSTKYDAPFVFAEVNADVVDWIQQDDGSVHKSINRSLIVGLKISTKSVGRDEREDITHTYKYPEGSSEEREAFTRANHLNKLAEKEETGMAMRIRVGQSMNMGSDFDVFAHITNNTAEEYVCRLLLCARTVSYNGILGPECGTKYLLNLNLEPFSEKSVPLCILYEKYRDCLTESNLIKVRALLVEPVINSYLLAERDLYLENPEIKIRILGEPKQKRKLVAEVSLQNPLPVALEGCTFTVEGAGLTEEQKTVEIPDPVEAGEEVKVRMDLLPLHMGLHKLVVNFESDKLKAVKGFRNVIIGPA
# TG1 = target: T2, TG1 (Homo sapiens, UniProt P22735); assay: glutamate dehydrogenase-coupled deamidation assay, substrate Cbz-Gln-Ser; format: biochemical; settings: irreversible inhibition model, full progress curves
# T2 sequence (P22735 1-817): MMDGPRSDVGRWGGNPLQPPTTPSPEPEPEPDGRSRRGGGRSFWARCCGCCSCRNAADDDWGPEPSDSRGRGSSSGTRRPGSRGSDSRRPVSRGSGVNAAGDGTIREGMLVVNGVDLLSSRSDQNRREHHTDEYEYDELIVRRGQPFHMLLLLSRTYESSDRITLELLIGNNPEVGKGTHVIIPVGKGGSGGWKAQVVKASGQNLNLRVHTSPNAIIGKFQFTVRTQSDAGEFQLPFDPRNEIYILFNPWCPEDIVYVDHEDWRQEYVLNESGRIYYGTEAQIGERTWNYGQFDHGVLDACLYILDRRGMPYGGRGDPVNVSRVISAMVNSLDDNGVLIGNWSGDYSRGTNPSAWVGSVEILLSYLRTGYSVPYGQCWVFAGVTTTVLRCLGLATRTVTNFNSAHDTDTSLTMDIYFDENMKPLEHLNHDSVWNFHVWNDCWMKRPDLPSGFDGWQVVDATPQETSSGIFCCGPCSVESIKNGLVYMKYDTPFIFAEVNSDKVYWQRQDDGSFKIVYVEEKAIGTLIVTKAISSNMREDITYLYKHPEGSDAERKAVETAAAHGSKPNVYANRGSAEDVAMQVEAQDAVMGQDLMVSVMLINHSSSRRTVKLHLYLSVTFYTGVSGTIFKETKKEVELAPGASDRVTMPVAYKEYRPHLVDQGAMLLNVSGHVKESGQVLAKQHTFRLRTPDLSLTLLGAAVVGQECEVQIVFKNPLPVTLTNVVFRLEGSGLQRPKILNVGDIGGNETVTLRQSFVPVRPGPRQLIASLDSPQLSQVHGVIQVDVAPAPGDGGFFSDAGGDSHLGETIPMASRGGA
Compound,kinh/Ki TG2 (TG2) [M⁻¹ s⁻¹],kinh/Ki TG1 (TG1) [M⁻¹ s⁻¹]
"O=C(N[C@@H]1C[C@@H](C(=O)NC[C@@H]2CC(Br)=NO2)N(C(=O)OCc2cnc3ccccc3c2)C1)c1cccc(O)c1 [Compound 3, (2S,4R)-quinolin-3-ylmethyl 2-((((S)-3-bromo-4,5-dihydroisoxazol-5-yl)methyl)carbamoyl)-4-(3-hydroxybenzamido)pyrrolidine-1-carboxylate]",603,302
"O=C(NC[C@@H]1CC(Br)=NO1)[C@@H]1C[C@@H](c2ccc(Cl)cc2)CN1C(=O)OCc1cnc2ccccc2c1 [Compound 14, (2S,4S)-quinolin-3-ylmethyl 2-((((S)-3-bromo-4,5-dihydroisoxazol-5-yl)methyl)carbamoyl)-4-(4-chlorophenyl)pyrrolidine-1-carboxylate]",200,257
"O=C(NC[C@@H]1CC(Br)=NO1)[C@@H]1C[C@@H](NC(=O)C2(C(=O)O)CCC2)CN1C(=O)OCc1cnc2ccccc2c1 [Compound 7, 1-(((3R,5S)-5-((((S)-3-bromo-4,5-dihydroisoxazol-5-yl)methyl)carbamoyl)-1-((quinolin-3-ylmethoxy)carbonyl)pyrrolidin-3-yl)carbamoyl)cyclobutanecarboxylic acid]",230,96.7
"O=C(NC[C@@H]1CC(Br)=NO1)[C@@H]1C[C@@H](c2c[nH]c3ccc(F)cc23)CN1C(=O)OCc1cnc2ccccc2c1 [Compound 15, (2S,4S)-quinolin-3-ylmethyl 2-((((S)-3-bromo-4,5-dihydroisoxazol-5-yl)methyl)carbamoyl)-4-(5-fluoro-1H-indol-3-yl)pyrrolidine-1-carboxylate]",307,800
"O=C(N[C@@H]1C[C@@H](C(=O)NC[C@@H]2CC(Br)=NO2)N(C(=O)OCc2cnc3ccccc3c2)C1)c1ccc(O)cc1 [Compound 4, (2S,4R)-quinolin-3-ylmethyl 2-((((S)-3-bromo-4,5-dihydroisoxazol-5-yl)methyl)carbamoyl)-4-(4-hydroxybenzamido)pyrrolidine-1-carboxylate]",940,522
"O=C(N[C@@H]1C[C@@H](C(=O)NC[C@@H]2CC(Br)=NO2)N(C(=O)OCc2cnc3ccccc3c2)C1)c1ccccc1 [Compound 1, (2S,4R)-quinolin-3-ylmethyl 4-benzamido-2-((((S)-3-bromo-4,5-dihydroisoxazol-5-yl)methyl)carbamoyl)pyrrolidine-1-carboxylate]",430,410
"O=C(N[C@@H]1C[C@@H](C(=O)NC[C@@H]2CC(Br)=NO2)N(C(=O)OCc2cnc3ccccc3c2)C1)c1cnccn1 [Compound 6, (2S,4R)-quinolin-3-ylmethyl 2-((((S)-3-bromo-4,5-dihydroisoxazol-5-yl)methyl)carbamoyl)-4-(pyrazine-2-carboxamido)pyrrolidine-1-carboxylate]",262,200

# The next lines start with the values.
kinh/Ki TG2 (TG2) [M⁻¹ s⁻¹],kinh/Ki TG1 (TG1) [M⁻¹ s⁻¹],Compound
870,645,"O=C(NC[C@@H]1CC(Br)=NO1)[C@@H]1C[C@@H](c2cccc(O)c2)CN1C(=O)OCc1cnc2ccccc2c1 [Compound 11, (2S,4S)-quinolin-3-ylmethyl 2-((((S)-3-bromo-4,5-dihydroisoxazol-5-yl)methyl)carbamoyl)-4-(3-hydroxyphenyl)pyrrolidine-1-carboxylate]"
422,695,"O=C(NC[C@@H]1CC(Br)=NO1)[C@@H]1C[C@@H](c2cccc(Cl)c2)CN1C(=O)OCc1cnc2ccccc2c1 [Compound 13, (2S,4S)-quinolin-3-ylmethyl 2-((((S)-3-bromo-4,5-dihydroisoxazol-5-yl)methyl)carbamoyl)-4-(3-chlorophenyl)pyrrolidine-1-carboxylate]"
618,452,"O=C(N[C@@H]1C[C@@H](C(=O)NC[C@@H]2CC(Br)=NO2)N(C(=O)OCc2cnc3ccccc3c2)C1)c1ccccc1O [Compound 2, (2S,4R)-quinolin-3-ylmethyl 2-((((S)-3-bromo-4,5-dihydroisoxazol-5-yl)methyl)carbamoyl)-4-(2-hydroxybenzamido)pyrrolidine-1-carboxylate]"
295,287,"O=C(NC[C@@H]1CC(Br)=NO1)[C@@H]1C[C@H](c2ccccc2)CN1C(=O)OCc1cnc2ccccc2c1 [Compound 9, (2S,4R)-quinolin-3-ylmethyl 2-((((S)-3-bromo-4,5-dihydroisoxazol-5-yl)methyl)carbamoyl)-4-phenylpyrrolidine-1-carboxylate]"
810,1100,"O=C(NC[C@@H]1CC(Br)=NO1)[C@@H]1C[C@@H](c2ccccc2)CN1C(=O)OCc1cnc2ccccc2c1 [Compound 8, (2S,4S)-quinolin-3-ylmethyl 2-((((S)-3-bromo-4,5-dihydroisoxazol-5-yl)methyl)carbamoyl)-4-phenylpyrrolidine-1-carboxylate]"
1520,1510,"O=C(NC[C@@H]1CC(Br)=NO1)[C@@H]1C[C@@H](c2ccc(O)cc2)CN1C(=O)OCc1cnc2ccccc2c1 [Compound 12, (2S,4S)-quinolin-3-ylmethyl 2-((((S)-3-bromo-4,5-dihydroisoxazol-5-yl)methyl)carbamoyl)-4-(4-hydroxyphenyl)pyrrolidine-1-carboxylate]"
563,492,"O=C(NC[C@@H]1CC(Br)=NO1)[C@@H]1C[C@@H](c2ccccc2O)CN1C(=O)OCc1cnc2ccccc2c1 [Compound 10, (2S,4S)-quinolin-3-ylmethyl 2-((((S)-3-bromo-4,5-dihydroisoxazol-5-yl)methyl)carbamoyl)-4-(2-hydroxyphenyl)pyrrolidine-1-carboxylate]"
